# According to patent US9012397B2 (priority 2011, dated 2015):
# System: unidentified sting
# Design: species or system human
# Conditions: in vivo
substance,measurement,value
pGLU-ASN-TRP-LYS-C8 [ZEP3],clinical outcome,relief from the itching sensation within a number of minutes
same,time until redness disappeared,2 days
